# Laboratory results from US10233184B2, “7-substituted sulfonimidoylpurinone compounds and derivatives for the treatment and prophylaxis of virus infection” (Hoffmann-La Roche Inc., priority 2016, dated 2019).
# pEC50: −log10 of the molar value.
# What was measured:
# human TLR7 = biological target: T1, human TLR7 (Homo sapiens, UniProt Q9NYK1); test: HEK293-Blue-hTLR-7 cells assay (SEAP reporter); format: cell-based; conditions: for Ratio (EC50(prodrug)/EC50(active form)): EC50 of prodrug over EC50 of corresponding active form; for pEC50: HEK293-Blue-hTLR-7 cells, SEAP reporter, 20 hrs, prodrug, read-out: HEK293-hTLR-7 EC50 (Prodrug)
# T1 sequence (Q9NYK1 27-1049): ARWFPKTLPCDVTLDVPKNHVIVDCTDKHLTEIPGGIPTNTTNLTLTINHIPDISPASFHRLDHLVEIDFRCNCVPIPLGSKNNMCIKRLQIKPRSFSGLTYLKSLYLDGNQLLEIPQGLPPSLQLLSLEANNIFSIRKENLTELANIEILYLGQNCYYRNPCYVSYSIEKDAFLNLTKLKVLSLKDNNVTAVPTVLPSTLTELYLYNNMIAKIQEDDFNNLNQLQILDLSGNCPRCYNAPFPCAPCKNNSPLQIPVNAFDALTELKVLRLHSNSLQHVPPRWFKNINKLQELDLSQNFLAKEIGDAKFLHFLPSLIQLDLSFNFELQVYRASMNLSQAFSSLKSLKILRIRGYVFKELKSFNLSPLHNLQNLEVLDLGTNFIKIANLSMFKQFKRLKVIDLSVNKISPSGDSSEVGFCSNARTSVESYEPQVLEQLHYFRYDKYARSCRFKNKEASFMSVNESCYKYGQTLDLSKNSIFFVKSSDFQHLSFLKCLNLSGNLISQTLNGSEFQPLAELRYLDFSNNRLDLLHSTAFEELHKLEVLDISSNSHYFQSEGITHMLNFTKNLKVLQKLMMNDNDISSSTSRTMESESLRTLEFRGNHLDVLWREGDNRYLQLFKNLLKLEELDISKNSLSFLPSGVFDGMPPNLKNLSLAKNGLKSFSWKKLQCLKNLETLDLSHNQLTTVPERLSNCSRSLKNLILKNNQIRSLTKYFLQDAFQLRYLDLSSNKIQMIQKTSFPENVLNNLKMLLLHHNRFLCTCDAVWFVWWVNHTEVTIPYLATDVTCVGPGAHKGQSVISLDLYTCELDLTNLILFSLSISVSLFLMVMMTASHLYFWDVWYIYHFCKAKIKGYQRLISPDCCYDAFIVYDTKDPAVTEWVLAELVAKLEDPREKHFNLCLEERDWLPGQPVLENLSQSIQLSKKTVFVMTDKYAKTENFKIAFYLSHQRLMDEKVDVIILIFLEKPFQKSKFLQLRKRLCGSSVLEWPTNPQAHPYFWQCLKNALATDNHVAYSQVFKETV
# Excerpt: HEK293-Blue-hTLR-7 Cells Assay:
# A stable HEK293-Blue-hTLR-7 cell line was purchased from InvivoGen (Cat.#: hkb-htlr7, San Diego, Calif., USA). These cells were designed for studying the stimulation of human TLR7 by monitoring the activation of NF-κB. A SEAP (secreted embryonic alkaline phosphatase) reporter gene was placed under the control of the IFN-β minimal promoter fused to five NF-κB and AP-1-binding sites. The SEAP was induced by activating NF-κB and AP-1 via stimulating HEK-Blue hTLR7 cells with TLR7 ligands. Therefore the reporter expression was regulated by the NF-κB promoter upon stimulation of human TLR7 for 20 hrs. The cell culture supernatant SEAP reporter activity was determined using QUANTI-Blue™ kit (Cat.#: rep-qbl, Invivogen, San Diego, Calif., USA) at a wavelength of 640 nm, a detection medium that turns purple or blue in the presence of alkaline phosphatase.
# HEK293-Blue-hTLR7 cells were incubated at a density of 250,000˜450,000 cells/mL in a volume of 180 μL in a 96-well plate in Dulbecco's Modified Eagle's medium (DMEM) containing 4.5 g/L glucose, 50 U/mL penicillin, […], […], 2 mM L-glutamine, 10% (V/V) heat-inactivated fetal bovine serum for 24 hrs. Then the HEK293-Blue-hTLR-7 cells were incubated with addition of 20 μL test compound in a serial dilution in the presence of final DMSO at 1% and perform incubation under 37° C. in a CO2 incubator for 20 hrs. Then 20 μL of the supernatant from each well was incubated with 180 μL Quanti-blue substrate solution at 37° C. for 2 hrs and the absorbance was read at 620˜655 nm using a spectrophotometer. The signalling pathway that TLR7 activation leads to downstream NF-κB activation has been widely accepted, and therefore similar reporter assay was also widely used for evaluating TLR7 agonist (Tsuneyasu Kaisho and Takashi Tanaka, Trends in Immunology, Volume 29, Issue 7, July 2008, […]; Hiroaki Hemmi et al, Nature Immunology 3, 196-200 (2002)).
# The Compounds and Examples of the present invention were tested in HEK293-hTLR-7 assay for their TLR7 agonism activity as described herein and results are listed in Table 1. […] The calculated ratio of EC50(prodrug)/EC50(active form) were within the range from 32 to about 7600.
# LYSA solubility study = format: physicochemical; conditions: phosphate buffer, pH 6.5, aqueous buffer, thermodynamic from solid, 0.05M phosphate buffer pH 6.5, read-out: LYSA of Prodrugs
# Experimental: LYSA study is used to determine the aqueous solubility of tested compounds. Samples were prepared in duplicate from 10 mM DMSO stock solution. After evaporation of DMSO with a centrifugal vacuum evaporator, the compounds were dissolved in 0.05M phosphate buffer (pH 6.5), stirred for one hour and shaken for two hours. After one night, the solutions were filtered using a microtiter filter plate. Then the filtrate and its 1/10 dilution were analyzed by HPLC-UV. […] The results were in μg/mL. In case the percentage of sample measured in solution after evaporation divided by the calculated maximum of sample amount was bigger than 80%, the solubility was reported as bigger than this value.
SMILES,Ratio (EC50(prodrug)/EC50(active form)) (human TLR7),pEC50 (human TLR7),solubility thermodynamic (LYSA solubility study)
"CCCS(=N)(=O)c1nc(N)c2c(n1)n(Cc1ccccc1)c(=O)n2C(=O)N(CC)CCOC (stereo not shown) [Example 5, 6-Amino-9-benzyl-N-ethyl-N-(2-methoxyethyl)-8-oxo-2-(propylsulfonimidoyl)purine-7-carboxamide]",630.8,4.39,> 595 µg/mL
"CCCCN(CC)C(=O)n1c(=O)n(Cc2ccccc2)c2nc(S(=N)(=O)CCC)nc(N)c21 (stereo not shown) [Example 6, 6-Amino-9-benzyl-N-butyl-N-ethyl-8-oxo-2-(propylsulfonimidoyl)purine-7-carboxamide]",1266.2,4.08,140 µg/mL
"CCCS(=N)(=O)c1nc(N)c2c(n1)n(Cc1ccccc1)c(=O)n2C(=O)N(C)C(C)C (stereo not shown) [Example 10, 6-Amino-9-benzyl-N-isopropyl-N-methyl-8-oxo-2-(propylsulfonimidoyl)purine-7-carboxamide]",1053.8,4.16,120 µg/mL
"CCCS(=N)(=O)c1nc(N)c2c(n1)n(Cc1ccccc1)c(=O)n2C(=O)N(C)CCCOC (stereo not shown) [Example 12, 6-Amino-9-benzyl-N-(3-methoxypropyl)-N-methyl-8-oxo-2-(propylsulfonimidoyl)purine-7-carboxamide]",675.4,4.36,120 µg/mL
"CCCS(=N)(=O)c1nc(N)c2c(n1)n(Cc1ccccc1)c(=O)n2C(=O)N(C)CC(C)C (stereo not shown) [Example 13, 6-Amino-9-benzyl-N-isobutyl-N-methyl-8-oxo-2-(propylsulfonimidoyl)purine-7-carboxamide]",1030.8,4.17,155 µg/mL
"CCCS(=N)(=O)c1nc(N)c2c(n1)n(Cc1ccccc1)c(=O)n2C(=O)N(C)CCC(=O)OCC (stereo not shown) [Example 15, Ethyl 3-[[6-amino-9-benzyl-8-oxo-2-(propylsulfonimidoyl)purine-7-carbonyl]-methyl-amino]propanoate]",7600,3.31,405 µg/mL
"CCCS(=N)(=O)c1nc(N)c2c(n1)n(Cc1ccccc1)c(=O)n2C(=O)N(C)CCC(=O)OC(C)(C)C (stereo not shown) [Example 16, tert-Butyl 3-[[6-amino-9-benzyl-8-oxo-2-(propylsulfonimidoyl)purine-7-carbonyl]-methyl-amino]propanoate]",493.8,4.49,205 µg/mL

# The remaining molecules from weak to strong by pEC50 (human TLR7), led by results:
Ratio (EC50(prodrug)/EC50(active form)) (human TLR7),pEC50 (human TLR7),solubility thermodynamic (LYSA solubility study),SMILES
372.1,4.49,615 µg/mL,"CCCS(=N)(=O)c1nc(N)c2c(n1)n(Cc1ccccc1)c(=O)n2C(=O)N(C)CCOC (stereo not shown) [Example 2, 6-Amino-9-benzyl-N-(2-methoxyethyl)-N-methyl-8-oxo-2-(propylsulfonimidoyl)purine-7-carboxamide]"
,4.50,> 380 µg/mL,"CCCS(=N)(=O)c1nc(N)c2c(n1)n(Cc1ccccc1)c(=O)n2C(=O)N(C)CCN(C)C(=O)OC(C)(C)C (stereo not shown) [Example 27, tert-Butyl N-[2-[[6-amino-9-benzyl-8-oxo-2-(propylsulfonimidoyl)purine-7-carbonyl]-methyl-amino]ethyl]-N-methyl-carbamate]"
372.3,4.62,> 670 µg/mL,"CCCS(=N)(=O)c1nc(N)c2c(n1)n(Cc1ccccc1)c(=O)n2C(=O)N(C)CCN(C)C(C)=O (stereo not shown) [Example 25, N-[2-[Acetyl(methyl)amino]ethyl]-6-amino-9-benzyl-N-methyl-8-oxo-2-(propylsulfonimidoyl)purine-7-carboxamide]"
353.8,4.64,695 µg/mL,"CCCS(=N)(=O)c1nc(N)c2c(n1)n(Cc1ccccc1)c(=O)n2C(=O)N1CCC(N2CCCCC2)CC1 (stereo not shown) [Example 4, 6-Amino-9-benzyl-7-[4-(1-piperidyl)piperidine-1-carbonyl]-2-(propylsulfonimidoyl)purin-8-one]"
306.2,4.70,615 µg/mL,"CCCN(CCOC)C(=O)n1c(=O)n(Cc2ccccc2)c2nc(S(=N)(=O)CCC)nc(N)c21 (stereo not shown) [Example 7, 6-Amino-9-benzyl-N-(2-methoxyethyl)-8-oxo-N-propyl-2-(propylsulfonimidoyl)purine-7-carboxamide]"
295.4,4.72,> 520 µg/mL,"CCCS(=N)(=O)c1nc(N)c2c(n1)n(Cc1ccccc1)c(=O)n2C(=O)N1CCC1 (stereo not shown) [Example 9, 6-Amino-7-(azetidine-1-carbonyl)-9-benzyl-2-(propylsulfonimidoyl)purin-8-one]"
,4.82,240 µg/mL,"CCCN(CC)C(=O)n1c(=O)n(Cc2ccccc2)c2nc(S(=N)(=O)CCC)nc(N)c21 (stereo not shown) [Example 3, 6-Amino-9-benzyl-N-ethyl-8-oxo-N-propyl-2-(propylsulfonimidoyl)purine-7-carboxamide]"
206.2,4.87,> 690 µg/mL,"CCCS(=N)(=O)c1nc(N)c2c(n1)n(Cc1ccccc1)c(=O)n2C(=O)N(C)CCN(C)C(=O)OC (stereo not shown) [Example 26, Methyl N-[2-[[6-amino-9-benzyl-8-oxo-2-(propylsulfonimidoyl)purine-7-carbonyl]-methyl-amino]ethyl]-N-methyl-carbamate]"
86.2,5.25,> 618 µg/mL,"CCCS(=N)(=O)c1nc(N)c2c(n1)n(Cc1ccccc1)c(=O)n2C(=O)N1CCN(C)CC1 (stereo not shown) [Example 11, 6-Amino-9-benzyl-7-(4-methylpiperazine-1-carbonyl)-2-(propylsulfonimidoyl)purin-8-one]"
36.9,5.62,225 µg/mL,"CCCS(=N)(=O)c1nc(N)c2c(n1)n(Cc1ccccc1)c(=O)n2C(=O)N(C)CC(=O)OCC (stereo not shown) [Example 14, Ethyl 2-[[6-amino-9-benzyl-8-oxo-2-(propylsulfonimidoyl)purine-7-carbonyl]-methyl-amino]acetate]"
32.3,5.68,620 µg/mL,"CCCS(=N)(=O)c1nc(N)c2c(n1)n(Cc1ccccc1)c(=O)n2C(=O)N(CCOC)CCOC (stereo not shown) [Example 8, 6-Amino-9-benzyl-N,N-bis(2-methoxyethyl)-8-oxo-2-(propylsulfonimidoyl)purine-7-carboxamide]"
